The numbers were not newly measured in US20200319065A1, “STABLE DITHIZONE SOLUTIONS AND FORMULATIONS AND METHODS FOR THEIR USE” (CITY OF HOPE, priority 2019, published 2020), which cites them from elsewhere.

In the case of `S=C(N=Nc1ccccc1)NNc1ccccc1` [DTZ, Dithizone], under “ethanol, chloroform and DMSO”, the “solubility in organic solvents” value is “solubilizes partially”. Moreover, the solubility in water result (water) is on record as “relatively insoluble”.
